The target of the assay is T1, Thromboxane A2 (TXA2) synthetase (Equus caballus, UniProt A0A9L0T8T9).
T1 sequence (A0A9L0T8T9 2-534): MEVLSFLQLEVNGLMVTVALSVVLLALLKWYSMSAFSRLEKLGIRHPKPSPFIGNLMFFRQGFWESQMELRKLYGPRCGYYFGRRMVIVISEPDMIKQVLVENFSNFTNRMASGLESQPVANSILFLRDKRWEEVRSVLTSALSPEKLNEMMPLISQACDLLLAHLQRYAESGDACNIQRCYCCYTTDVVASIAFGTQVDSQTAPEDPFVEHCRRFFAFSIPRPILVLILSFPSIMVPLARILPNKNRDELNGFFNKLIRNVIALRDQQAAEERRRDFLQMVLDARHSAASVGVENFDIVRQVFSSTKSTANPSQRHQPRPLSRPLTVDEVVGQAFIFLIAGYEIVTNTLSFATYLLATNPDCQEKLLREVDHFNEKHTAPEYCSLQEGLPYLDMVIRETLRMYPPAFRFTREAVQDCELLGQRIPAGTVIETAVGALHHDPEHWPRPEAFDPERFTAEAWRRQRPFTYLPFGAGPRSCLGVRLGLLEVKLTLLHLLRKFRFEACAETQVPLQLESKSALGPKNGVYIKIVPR
Nature of the assay: Inhibitory Action on Thromboxane A2 (TXA2) Synthetase (indomethacin-treated horse platelet microsomes, TXB2 radioimmunoassay). Type of assay: biochemical. The procedure:
As a specimen of TXA2 synthetase was employed horse platelet microsomes treated with indomethacin (indomethacin-treated horse platelet microsomes: IPM), which were prepared according to the method described by Needleman et al. (Science 193 163, 1976).
to 60 μl of 50 mM tris-buffer solution (pH 7.5) of IPM (containing 140 μg as protein) was added 60 μl of the buffer solution or the solution containing the test compounds at various concentrations. The mixtures were left standing for 5 minutes at room temperature. Then at 0° C. to 100 μl portion of the mixture was added 20 μl of the buffer solution containing 30 ng of prostaglandin H2 (PGH2). The mixtures were left standing for 5 minutes at 0° C. to cause formation of thromboxane A2 (TXA2). The reaction of thromboxane A2 production was stopped by the addition of 500 μl of the tris-buffer to the mixture. Using 50 μl of the mixtures, the quantitative determination of thromboxane B2 (TXB2), a stable metabolite of TXA2, was done by means of the radioimmunoassay (Shibouta et al., Biochem. Pharmacol. 28 3601, 1979).
The inhibitory activity of the compounds on TXA2 -synthetase was determined from the difference in the production of TXB2 between the test group and the control group.

The results in this text go back to patent publication US4518602A, “Vinyl carboxylic acid derivatives, their production and use as inhibitors of thromboxane synthetase” (priority 1982, dated 1985).

As for `O=C(O)C(CCC/C=C(/c1ccccc1)c1cccnc1)Cc1ccccc1` (stereo not drawn) [3'-e], the inhibition – broadly, the change of the read-out against control, counted positive when it falls – at 0.03 µM (3 × 10^-8 M) was 33%. The molecule further yielded an inhibition at 0.1 µM (10^-7 M) of 90%.

`C#CCC(CCC/C=C(\c1ccccc1)c1cccnc1)C(=O)O` (stereo not drawn) [3'-h] registered an inhibition at 0.03 µM (3 × 10^-8 M) of 66%. Also, the inhibition at 0.1 µM (10^-7 M) is 93%.

As to `COCC(CCC/C=C(\c1ccccc1)c1cccnc1)C(=O)O` (stereo not drawn) [3'-i], the inhibition at 0.03 µM (3 × 10^-8 M) came out at 42%. In addition, the inhibition at 0.1 µM (10^-7 M) was 88%.

`N#Cc1ccc(CC(CCC/C=C(\c2ccccc2)c2cccnc2)C(=O)O)cc1` (stereo not drawn) [3'-n] yielded an inhibition at 0.03 µM (3 × 10^-8 M) of 57%. The same molecule showed an inhibition at 0.1 µM (10^-7 M) of 93%.

On to `CC(C)(CCC/C=C(\c1cccnc1)c1cccs1)C(=O)O` [3'-o], for which the “% Inhibition on thromboxane A2 synthetase” value (“% Inhibition” below) was 60% (3 × 10^-8 M) and 92% (10^-7 M).

Take `CC(C)(CCC/C=C(/c1cccnc1)c1cccs1)C(=O)O` [3'-p]: the “% Inhibition” value runs as follows: (3 × 10^-8 M) 46%; (10^-7 M) 90%.

The molecule `Cc1ccc(S(=O)(=O)C(CCCC/C=C(/c2ccccc2)c2cccnc2)C(=O)O)cc1` (stereo not drawn) [Compound 1-b] showed an inhibition at 0.03 µM (3 × 10^-8 M) of 45%. The inhibition at 0.1 µM (10^-7 M) is 80%.

In the case of `Cc1ccc(S(=O)(=O)C(CCCC/C=C(\c2ccccc2)c2cccnc2)C(=O)O)cc1` (stereo not drawn) [Compound 1-d], testing at 0.03 µM (3 × 10^-8 M) gave an inhibition of 57%. Under “10^-7 M”, this molecule returned an inhibition at 0.1 µM of 85%.

Where the note is “3 × 10^-8 M”, `O=C(O)C(CCCC=C(c1ccccc1)c1cccnc1)[S+]([O-])c1ccccc1` (stereo not drawn) [Compound 1-e] showed an inhibition at 0.03 µM of 45%. This molecule also yielded an inhibition at 0.1 µM (10^-7 M) of 80%.

`CC(C)(CCCC/C=C(\c1ccccc1)c1cccnc1)C(=O)O` [Compound 1-l] came in with an inhibition at 0.03 µM (3 × 10^-8 M) of 48%. In addition, 0.1 µM produced 90% inhibition (10^-7 M).

Take `CC(C)(CCCC/C=C(/c1ccccc1)c1cccnc1)C(=O)O` [Compound 1-m]: under “3 × 10^-8 M”, 0.03 µM produced 44% inhibition. Also, at 0.1 µM the inhibition (10^-7 M) was 92%.

Take `CC(C)(CCC/C=C(\c1ccccc1)c1cccnc1)C(=O)O` [Compound 2-a, (E)-2,2-dimethyl-7-phenyl-7-(3-pyridyl)-6-heptenoic acid]: for the setting “3 × 10^-8 M”, the inhibition at 0.03 µM came to 83%. Moreover, the inhibition at 0.1 µM (10^-7 M) was determined as 92%.

On to `CC(C)(CCC/C=C(/c1ccccc1)c1cccnc1)C(=O)O` [Compound 2-b, (Z)-2,2-dimethyl-7-phenyl-7-(3-pyridyl)-6-heptenoic acid], for which the inhibition at 0.03 µM (3 × 10^-8 M) turned out to be 49%. Further, where the note is “10^-7 M”, at 0.1 µM the inhibition was 90%.

For `CC(C)(CCC/C=C(\c1cccnc1)c1cccs1)C(=O)O` [Compound 2-c, (E)-2,2-dimethyl-7-(3-pyridyl)-7-(2-thienyl)-6-heptenoic acid], the “% Inhibition” value (3 × 10^-8 M) came out at 92%. In addition, where the note is “10^-7 M”, the inhibition at 0.1 µM came out at 97%.

In the case of `CC(C)(CCC/C=C(/c1cccnc1)c1cccs1)C(=O)O` [Compound 2-d, (Z)-2,2-dimethyl-7-(3-pyridyl)-7-(2-thienyl)-6-heptenoic acid], the inhibition at 0.03 µM (3 × 10^-8 M) was found to be 62%. The inhibition at 0.1 µM (10^-7 M) was determined as 92%.

`CC(CCCC=C(c1cccnc1)c1ccsc1)C(=O)O` (stereo not drawn) [Compound 2-e] came in with an inhibition at 0.03 µM (3 × 10^-8 M) of 65%. Testing at 0.1 µM (10^-7 M) gave an inhibition of 90%.

Under “3 × 10^-8 M”, `O=C(O)C(CCC/C=C(\c1cccnc1)c1cccs1)c1ccccc1` (stereo not drawn) [Compound 2-n] came in with an inhibition at 0.03 µM of 41%. For the same molecule, 0.1 µM produced 96% inhibition (10^-7 M).

The molecule `CSC(CCC/C=C(\c1ccccc1)c1cccnc1)C(=O)O` (stereo not drawn) [Compound 4-a] yielded an inhibition at 0.03 µM (3 × 10^-8 M) of 52%. Moreover, the inhibition at 0.1 µM (10^-7 M) amounted to 84%.

The molecule `O=C(O)C(CCC/C=C(\c1ccccc1)c1cccnc1)Sc1ccccc1` (stereo not drawn) [Compound 4-b] gave an inhibition at 0.03 µM (3 × 10^-8 M) of 60%. For the same molecule, where the note is “10^-7 M”, the inhibition at 0.1 µM came to 93%.

The molecule `O=C(O)C(CCC/C=C(/c1ccccc1)c1cccnc1)Sc1ccccc1` (stereo not drawn) [Compound 4-c] showed an inhibition at 0.03 µM (3 × 10^-8 M) of 50%. Moreover, testing at 0.1 µM (10^-7 M) gave an inhibition of 88%.

As to `COC(=O)C(C)(CCC/C=C(\c1ccccc1)c1cccnc1)Sc1ccccc1` (stereo not drawn) [Compound 4-h], for the setting “3 × 10^-8 M”, the inhibition at 0.03 µM worked out at 30%. Besides, testing at 0.1 µM (10^-7 M) gave an inhibition of 87%.

For the molecule `C=C(C)C(CCC/C=C(\c1ccccc1)c1cccnc1)C(=O)O` (stereo not drawn) [Compound 5-g], the inhibition at 0.03 µM (3 × 10^-8 M) is 59%. The molecule also registered an inhibition at 0.1 µM (10^-7 M) of 92%.

For the molecule `O=C(O)C(CCC/C=C(\c1ccccc1)c1cccnc1)C1=CCCC1` (stereo not drawn) [Compound 5-i], the inhibition at 0.03 µM (3 × 10^-8 M) worked out at 32%. In addition, the inhibition at 0.1 µM (10^-7 M) is 77%.

For `CC(C)(O)C(CCC/C=C(\c1ccccc1)c1cccnc1)C(=O)O` (stereo not drawn) [Compound 5-j], at 0.03 µM the inhibition (3 × 10^-8 M) was 41%. The molecule further had an inhibition at 0.1 µM (10^-7 M) of 81%.
